# Target: Indoleamine 2,3-dioxygenase 1 (Homo sapiens, UniProt P14902)
# Assay: Inhibition of IDO1 in IFN-gamma stimulated human HeLa cells assessed as inhibition of kynurenine production pre-incubated for 1 hr followed by IFN-gamma addition and measured after 18 hrs
# Format: cell-based
# Indoleamine 2,3-dioxygenase 1, sequence (P14902 whole entry): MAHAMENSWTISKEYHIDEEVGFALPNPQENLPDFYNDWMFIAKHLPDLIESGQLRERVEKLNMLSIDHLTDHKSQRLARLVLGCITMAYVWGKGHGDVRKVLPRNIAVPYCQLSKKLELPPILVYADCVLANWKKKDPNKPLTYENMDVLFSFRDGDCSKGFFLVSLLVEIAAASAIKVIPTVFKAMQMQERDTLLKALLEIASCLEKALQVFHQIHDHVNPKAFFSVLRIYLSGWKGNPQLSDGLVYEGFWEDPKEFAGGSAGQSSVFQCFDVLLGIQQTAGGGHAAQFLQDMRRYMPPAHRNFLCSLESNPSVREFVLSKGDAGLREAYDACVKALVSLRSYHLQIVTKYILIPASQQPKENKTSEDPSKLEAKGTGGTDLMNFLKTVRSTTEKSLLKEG
row,IC50 [µM],SMILES
1,> 1,Cc1ccc(NC(=O)Nc2cc(-c3cccc(C(=O)O)c3)ccc2Oc2ccccc2C(C)(C)C)cc1
2,0.045,CCCCN(CCCC)c1ccc(-c2ccccc2C(=O)O)cc1NC(=O)Nc1ccc(C)cc1
3,> 1,Cc1ccc(NC(=O)Nc2cc(-c3ccc(C(=O)O)cc3)ccc2Oc2ccccc2C(C)(C)C)cc1
4,> 1,Cc1ccc(NC(=O)Nc2cc(-c3ccccc3NS(C)(=O)=O)ccc2N(CC(C)C)CC(C)C)cc1
5,> 1,COCCN(CCOC)c1ccc(-c2ccccc2C(=O)O)cc1NC(=O)Nc1ccc(C)cc1
6,0.004,Cc1ccc(NC(=O)Nc2cc(-c3ccccc3-c3nnn[nH]3)ccc2N(CC(C)C)CC(C)C)cc1
7,> 1,Cc1ccc(NC(=O)Nc2cc(-c3ccccc3C(=O)NS(=O)(=O)C(F)(F)F)ccc2N(CC(C)C)CC(C)C)cc1
8,0.028,Cc1ccc(N2CCN(c3cc(-c4ccccc4-c4nnn[nH]4)ccc3N(CC(C)C)CC(C)C)C2=O)cc1
9,0.023,CCN(c1ccc(-c2ccccc2C(=O)O)cc1NC(=O)Nc1ccc(C)cc1)C1CCCC1
10,0.042,Cc1ccc(NC(=O)Nc2cc(-c3ccccc3C(=O)O)ccc2N(CC(C)C)C(C)C)cc1
11,0.076,Cc1ccc(NC(=O)Nc2cc(-c3ccccc3NS(=O)(=O)C(F)(F)F)ccc2N(CC(C)C)CC(C)C)cc1
12,0.097,Cc1ccc(NC(=O)N(C)c2cc(-c3ccccc3-c3nnn[nH]3)ccc2N(CC(C)C)CC(C)C)cc1
13,0.014,Cc1ccc(NC(=O)Nc2cc(-c3ccccc3C(=O)O)ccc2N(C)C2CCCCC2)cc1
14,> 1,Cc1ccc(NC(=O)Nc2cc(-c3ccccc3C(=O)O)ccc2N(C)c2ccccc2C(C)(C)C)cc1
15,0.405,Cc1ccc(N(C)C(=O)Nc2cc(-c3ccccc3-c3nnn[nH]3)ccc2N(CC(C)C)CC(C)C)cc1
16,0.013,Cc1ccc(NC(=O)Nc2cc(-c3ccccc3C(=O)O)ccc2N(CC(C)C)CC(C)C)cc1

# Reference: ChEMBL document CHEMBL4184247, “Development of a series of novel o-phenylenediamine-based indoleamine 2,3-dioxygenase 1 (IDO1) inhibitors” (Bioorg Med Chem Lett, 2018)
